The values below come from patent US20040044008A1, “Use of therapeutic benzamide derivatives” (priority 2000, published 2004).

Broadly, the melting point is the temperature of the solid-liquid transition.

`N#Cc1cccc(CN2CCN(c3ccc(NC(=O)c4ccccc4OCCC4CCCCC4)cc3)CC2)c1` [Example 32, N-[4-[4-(3-Cyano-benzyl)-piperazin-1-yl]-phenyl]-2-(2-cyclohexyl-ethoxy)-benzamide] registered a melting point of 119 to 121 °C.

The compound `O=C(Nc1ccc(N2CCN(Cc3cccc(F)c3)CC2)cc1)c1ccccc1-c1ccc(C(F)(F)F)cc1` (hydrate or solvate) [Example 53, 4′-Trifluoromethyl-biphenyl-2-carboxylic acid [4-[4-(3-fluoro-benzyl)-piperazin-1-yl]-phenyl]-amide] yielded a melting point of 189 to 190.5 °C.

In turn, `COc1cccc(C(=O)Nc2ccc(N3CCN(Cc4ccc[nH]4)CC3)cc2)c1-c1ccc(C(C)C)cc1` [Example 68, 4′-Isopropyl-6-methoxy-biphenyl-2-carboxylic acid [4-(4-(1H-pyrrol-2-ylmethyl)-piperazin-1-yl)-phenyl]-amide] yielded a melting point of 195 to 197 °C.

Turning to `O=C(Nc1ccc(N2CCN(Cc3ccc4c(c3)OCO4)CC2)cc1)c1ccccc1-c1ccc(C(F)(F)F)cc1` [Example 48, 4′-Trifluoromethyl-biphenyl-2-carboxylic acid [4-(4-(3,4-methylenedioxy-benzyl)-piperazin-1-yl)-phenyl]-amide], the melting point is 189 to 191 °C.

The compound `COc1cccc(C(=O)Nc2ccc(N3CCN(Cc4cccc(C#N)c4)CC3)cc2)c1OCCCc1ccccc1` [Example 33, N-[4-[4-(3-Cyano-benzyl)-piperazin-1-yl]-phenyl]-3-methoxy-2-(3-phenyl-propoxy)-benzamide] registered a melting point of 134 to 136 °C.

Compound `Cc1ccc(-c2ccccc2C(=O)Nc2ccc(N3CCN(Cc4cccc(C#N)c4)CC3)cc2)c(C)c1` registered a melting point of 72 to 76 °C.

For the compound `NC(=O)c1cccc(CN2CCN(c3ccc(NC(=O)c4ccccc4-c4ccc(C(F)(F)F)cc4)cc3)CC2)c1` [Example 50, 4′-Trifluoromethyl-biphenyl-2-carboxylic acid {4-[4-(3-carbamoyl-benzyl)-piperazin-1-yl]-phenyl}-amide], the melting point was in the range of 199 to 201 °C.

Compound `COc1ccc(C(=O)Nc2ccc(N3CCN(Cc4cccc(C#N)c4)CC3)cc2)c(-c2ccc(C(F)(F)F)cc2)c1` [Example 17, 5-Methoxy-4′-trifluoromethyl-biphenyl-2-carboxylic acid [4-[4-(3-cyano-benzyl)-piperazin-1-yl]-phenyl]-amide] gave a melting point of 160 to 164 °C.

Regarding `Cc1ccc(-c2ccc(C(F)(F)F)cc2)c(C(=O)Nc2ccc(N3CCN(Cc4cccc(C#N)c4)CC3)cc2)c1` [Example 18, 4-Methyl4′-trifluoromethyl-biphenyl-2-carboxylic acid [4-[4-(3-cyano-benzyl)-piperazin-1-yl]-phenyl]-amide], the melting point fell in the range of 120 to 124 °C.

The compound `N#Cc1cccc(CN2CCN(c3ccc(NC(=O)c4ccccc4Oc4ccccc4)cc3)CC2)c1` (hydrate or solvate) [Example 14, N-[4-[4-(3-Cyano-benzyl)-piperazin-1-yl]-phenyl]-2-phenoxy-benzamide] gave a melting point of 133 to 134 °C.

On to `O=C(Nc1ccc(N2CCN(Cc3ccncc3)CC2)cc1)c1ccccc1-c1ccc(C(F)(F)F)cc1`, for which the melting point was in the range of 194 to 196 °C.

`CC(C)=CCN1CCN(c2ccc(NC(=O)c3ccccc3-c3ccc(C(F)(F)F)cc3)cc2)CC1` [Example 46, 4′-Trifluoromethyl-biphenyl-2-carboxylic acid [4-(4-(3-methyl-but-2-enyl)-piperazin-1-yl]-phenyl]-amide] had a melting point of 203 to 205 °C.

In turn, `N#Cc1cccc(CN2CCN(c3ccc(NC(=O)c4ccc(Cl)cc4-c4ccc(C(F)(F)F)cc4)cc3)CC2)c1` [Example 10, 5-Chloro-4′-trifluoromethyl-biphenyl-2-carboxylic acid [4-[4-(3-cyano-benzyl)-piperazin-1-yl]-phenyl]-amide] displayed a melting point of 164 to 165 °C.

As to `N#Cc1cccc(CN2CCN(c3ccc(NC(=O)c4ccccc4-c4cccc(C(F)(F)F)c4)cc3)CC2)c1` [Example 22, 3′-Trifluoromethyl-biphenyl-2-carboxylic acid [4-[4-(3-cyano-benzyl)-piperazin-1-yl]-phenyl]-amide], the melting point was in the range of 117 to 121 °C.

`N#Cc1cccc(CN2CCN(c3ccc(NC(=O)c4ccccc4-n4cccc4)cc3)CC2)c1` [Example 85, N-{4-[4-(3-Cyano-benzyl)-piperazin-1-yl]-phenyl}-2-pyrrol-1-yl-benzamide]: the melting point amounted to 174 °C.

In turn, `N#Cc1cccc(CN2CCN(c3ccc(NC(=O)c4ccccc4-c4ccccc4)cc3)CC2)c1` (hydrate or solvate) [Example 11, Biphenyl-2-carboxylic acid [4-[4-(3-cyano-benzyl)-piperazin-1-yl]-phenyl]-amide] returned a melting point of 169 to 171 °C.

`O=C(Nc1ccc(N2CCN(Cc3ccsc3)CC2)cc1)c1ccccc1-c1ccc(C(F)(F)F)cc1` [Example 72, 4′-Trifluoromethyl-biphenyl-2-carboxylic acid [4-(4-thiophen-3-ylmethyl-piperazin-1-yl)-phenyl]-amide] gave a melting point of 187 to 189 °C.

The compound `N#CCN1CCN(c2ccc(NC(=O)c3ccccc3-c3ccc(C(F)(F)F)cc3)cc2)CC1` [Example 41, 4′-Trifluoromethyl-biphenyl-2-carboxylic acid [4-(4-cyanomethyl-piperazin-1-yl]-phenyl]-amide] displayed a melting point of 244 to 246 °C.

On to `O=C(Nc1ccc(N2CCN(Cc3cccc([N+](=O)[O-])c3)CC2)cc1)c1ccccc1-c1ccc(C(F)(F)F)cc1` [Example 49, 4′-Trifluoromethyl-biphenyl-2-carboxylic acid [4-(4-(3-nitro-benzyl)-piperazin-1-yl)-phenyl]-amide], for which the melting point was 152 to 154 °C.

With `Cn1ccnc1CN1CCN(c2ccc(NC(=O)c3ccccc3-c3ccc(C(F)(F)F)cc3)cc2)CC1` [Example 60, 4′-Trifluoromethyl-biphenyl-2-carboxylic acid [4-[4-(1-methyl-1H-imidazol-2-ylmethyl)-piperazin-1-yl)-phenyl]-amide], the melting point lay in the range of 118 to 120 °C.

The compound `CC(C)c1ccc(-c2cc(Cl)ccc2C(=O)Nc2ccc(N3CCN(Cc4cccc(C#N)c4)CC3)cc2)cc1` [Example 7, 5-Chloro-4′-isopropyl-biphenyl-2-carboxylic acid [4-[4-(3-cyano-benzyl)-piperazin-1-yl]-phenyl]-amide] displayed a melting point of 188 to 190 °C.

Consider `CCc1ccc(-c2ccccc2C(=O)Nc2ccc(N3CCN(Cc4cccc(C#N)c4)CC3)cc2)cc1` [Example 20, 4′-Ethyl-biphenyl-2-carboxylic acid [4-[4-(3-cyano-benzyl)-piperazin-1-yl]-phenyl]-amide], for which the melting point is 118 to 122 °C.

The compound `COc1cccc(C(=O)Nc2ccc(N3CCN(Cc4cccc(-c5nc(C)no5)c4)CC3)cc2)c1-c1ccc(C(C)C)cc1` [Example 74, 4′-Isopropyl-6-methoxy-biphenyl-2-carboxylic acid (4-(4-(3-(3-methyl-[1,2,4]oxadiazol-5-yl)-benzyl)-piperazine-1-yl)-phenyl)-amide] yielded a melting point of 180 to 182 °C.

On to `COc1ccc(-c2ccccc2C(=O)Nc2ccc(N3CCN(Cc4cccc(C#N)c4)CC3)cc2)cc1OC` [Example 26, 3′,4′-Dimethoxy-biphenyl-2-carboxylic acid [4-[4-(3-cyano-benzyl)-piperazin-1-yl]-phenyl]-amide], for which the melting point is 116 to 120 °C.

In turn, `O=C(Nc1ccc(N2CCN(Cc3nccs3)CC2)cc1)c1ccccc1-c1ccc(C(F)(F)F)cc1` (hydrate or solvate) [Example 59, 4′-Trifluoromethyl-biphenyl-2-carboxylic acid [4-(4-thiazol-2-ylmethyl-piperazin-1-yl)-phenyl]-amide] displayed a melting point of 187 to 189 °C.

In the case of `O=C(Nc1ccc(N2CCN(Cc3cc[nH]n3)CC2)cc1)c1ccccc1-c1ccc(C(F)(F)F)cc1` [Example 71, 4′-Trifluoromethyl-biphenyl-2-carboxylic acid {4-[4-(1H-pyrazole-3-ylmethyl)-piperazine-1-yl)-phenyl}-amide], the melting point lay within 194 to 196 °C.

In turn, `COc1cccc(CN2CCN(c3ccc(NC(=O)c4ccccc4-c4ccc(C(F)(F)F)cc4)cc3)CC2)c1` (hydrate or solvate) [Example 51, 4′-Trifluoromethyl-biphenyl-2-carboxylic acid [4-[4-(3-methoxy-benzyl)-piperazin-1-yl]-phenyl]-amide] gave a melting point of 168 to 170 °C.

In turn, `COc1cccc(C(=O)Nc2ccc(N3CCN(Cc4cccc(C#N)c4)CC3)cc2)c1OCCc1ccccc1` [Example 30, N-[4-[4-(3-Cyano-benzyl)-piperazin-1-yl]-phenyl]-3-methoxy-2-phenethyloxy-benzamide] came in with a melting point of 140 to 142 °C.

In the case of `O=C(Nc1ccc(N2CCN(Cc3ccc(F)cc3)CC2)cc1)c1ccccc1-c1ccc(C(F)(F)F)cc1` [Example 52, 4′-Trifluoromethyl-biphenyl-2-carboxylic acid [4-[4-(4-fluoro-benzyl)-piperazin-1-yl]-phenyl]-amide], the melting point lay within 198 to 200 °C.

The compound `CCOCCN1CCN(c2ccc(NC(=O)c3ccccc3-c3ccc(C(F)(F)F)cc3)cc2)CC1` [Example 43, 4′-Trifluoromethyl-biphenyl-2-carboxylic acid [4-(4-(2-ethoxy-ethyl)-piperazin-1-yl]-phenyl]-amide] displayed a melting point of 176 to 178 °C.

On to `Cc1ccc(-c2ccccc2C(=O)Nc2ccc(N3CCN(Cc4cccc(C#N)c4)CC3)cc2)cc1C`, for which the melting point is 140 to 144 °C.

In turn, `O=C(Nc1ccc(N2CCN(Cc3cccs3)CC2)cc1)c1ccccc1-c1ccc(C(F)(F)F)cc1` [Example 70, 4′-Trifluoromethyl-biphenyl-2-carboxylic acid [4-(4-thiophen-2-ylmethyl-piperazin-1-yl)-phenyl]-amide] yielded a melting point of 181 to 183 °C.

For the compound `CCOC(=O)CN1CCN(c2ccc(NC(=O)c3ccccc3-c3ccc(C(F)(F)F)cc3)cc2)CC1` [Example 42, 4′-Trifluoromethyl-biphenyl-2-carboxylic acid [4-(4-ethoxycarbonylmethyl-piperazin-1-yl)-phenyl]-amide], the melting point lay in the range of 167 to 169 °C.
